In US20160136229A1, “MATERIALS FOR POSITIVE CATHEPSIN B MODULATION AND METHODS OF USE FOR TREATING MILD COGNITIVE IMPAIRMENT (MCI), EARLY DEMENTIA, A-SYNUCLEINOPATHY, TRAUMATIC BRAIN INJURY, CARDIOMYOPATHY, EYE DISEASE AND SKIN DAMAGE” (University of North Carolina at Pembroke, priority 2013, published 2016):

Assays:
[1] = test system: intracellular Aβ1-42; assay: Intracellular Aβ1-42 in pyramidal neurons of APPswe/PS1ΔE9 transgenic mice; assay type: in vivo, mouse; settings: PADK-treated APPswe/PS1ΔE9 transgenic mice; CA1
Text: FIG. 1. Lysosomal modulation increases the cathepsin B content of lysosomes and reduces intracellular Δβ1-42 in the APPswe/PS1ΔE9 transgenic mouse model of Alzheimer's disease. […] Without wishing to be bound by any scientific theory, the latter steps may involve processing/trafficking of active intermediate (intCB) and mature forms (matCB) from early/late endosomes to lysosomes in order to promote protein degradation (A). […] The increase in organellar cathepsin B enzyme (red) in PADK-treated APPswe/PS1ΔE9 transgenic mice (tg) was associated with a decrease in intracellular Δβ1-42 in the CA1 pyramidal neurons (C). Arrows denote co-localization in lysosomes, capturing intact Δβ1-42 before being degraded by cathepsin B. View-field widths: 12 μm. wt, vehicle-treated wild-type mice.
The lysosomal modulator Z-Phe-Ala-diazomethylketone (PADK) is administered to APPswe/PS1ΔE9 transgenic mice. Low-level PADK enhances cathepsin trafficking and maturation, thereby improving the clearance capacity of lysosomes (FIG. 1). It attenuates both PHF-tau and synaptic decline in the hippocampal slice model of protein accumulation (Bendiske and Bahr, 2003; Butler et al., 2005; Bahr, 2009). […] In PADK-treated transgenic mice, the increase in organellar cathepsin B was associated with a decrease in intracellular Aβ1-42 in pyramidal neurons (FIG. 1C).

[2] = biological target: T1, 30-kDa active form of cathepsin B (Rattus norvegicus, UniProt P00787); assay: Immunoblot of active cathepsin B in brain region homogenates of Fischer rats; assay type: in vivo; settings: hippocampal and neocortical homogenates; 27 mg/kg daily, 9 days of injections
T1 construct: assessed by immunoblot to label the 30-kDa active form of cathepsin B; from tissue; host or cells: Fischer rat brain regions (A5); rat brain regions, eye and skin after oral dosing (A18); rat organotypic heart slice cultures (A17)
Description: FIG. 3. Lysosomal modulator PADK dramatically up-regulates active cathepsin B levels in middle-aged Fischer rats, a model of MCI. The female rats were injected daily with vehicle (veh) or 27 mg/kg PADK for 9 days. Brain regions were dissected, homogenates prepared, and equal protein aliquots were assessed by immunoblot to label the 30-kDa active form of cathepsin B as well as actin load controls (A). The hippocampal homogenate samples were also stained for the postsynaptic marker GluR1 to assess for synaptic recovery in correspondence to cathepsin B regulation (A, lower blots).
Brains were removed from the Fischer rats after the behavior studies in order to assess cathepsin B and synaptic marker levels. […] Cathepsin B immunoreactivity was increased 4- to 8-fold in hippocampal as well as neocortical homogenates, while non-lysosomal proteins remained unchanged (gel load controls). In addition to the correspondence with improved memory, there is evidence that the lysosomal modulation corresponds with synaptic recovery, assessing the postsynaptic marker GluR1 in hippocampus (FIG. 3A lower blots, and FIG. 3C). Without wishing to be bound by any scientific theory, the results support the hypothesis that lysosomal enhancement offsets the age-related cascade of microtubule destabilization, transport failure, synaptic decline, and cognitive impairment. […]

[3] = test system: Aβ peptide; assay: Aβ peptide in hippocampal samples of mutant human APP mice; assay type: in vivo, mouse; settings: PADK-treated transgenic mice; correlated with augmented active CatB in brain
Description: FIG. 4. Enhancing lysosome efficiency with the cathepsin B modulator PADK leads to reductions of multiple types of proteinopathy-related accumulation events. […] Age-matched wild-type mice (wt) and 9-10-month mutant human APP mice, a model of early dementia, treated with or without PADK were assessed for the 4-kDa Δβ peptide, the active form of cathepsin B (act CB), and other proteins in hippocampal samples (C). Similar treatment groups used another APP mouse model at 20-22 months of age to measure clearance of APP carboxyterminal fragments APP-αCTF and APP-βCTF (D). Rat hippocampal slice cultures from the untreated control group (con) and slices treated with submicromolar Δβ42 (early tauopathy model) in the absence or presence of PADK (5 μM for 4 days) were assessed for phosphorylated tau (pTau) and other proteins (E). For a model of early α-synucleinopathy, human A53T α-synuclein transgenic mice, at 7 months old, were studied with or without PADK treatment and assessed for human α-synuclein (α-syn) in TX-100 extracts of hippocampus and for other proteins in hippocampal homogenates (F). Plotted data (±SEM) were compared to neighboring vehicle groups by unpaired t-tests: *p=0.02, **p<0.01, ***p<0.001. APPswind and APP-PS1 mice are described in Butler et al., (2011), the entire content of which is hereby incorporated herein by reference. […]

[4] = test system: cathepsin B; assay: Cathepsin B species immunoblot in heart tissue of A53T mice; assay type: in vivo, mouse
Description: FIG. 8. PADK also enhances cathepsin B species in the heart. The A53T early α-synucleinopathy mouse model was injected daily with vehicle or PADK (i.p., 18 mg/kg/day) to test for changes in heart tissue. […] Positions of molecular weight standards (kDa) are shown on the left side of the immunoblot. (B) In the lower graph, ratios between CB-30 and CB-105 (mean±SEM) provide a good example of the unique PADK effect on cathepsin B species in the heart. **P<0.01 as compared to vehicle-treated A53T mice.
Ratio measures between the 30-kDa form and the 105-kDa species indicate a unique PADK effect on cathepsin B species in the heart (FIG. 8 bar graph).

[5] = test system: rats; assay: Adverse effect observation after oral dosing in rats; assay type: in vivo, rat; settings: 15 mg/kg twice a day, 10 days
[6] = test system: Aβ1-42 peptide; settings: cited from earlier work

T1 sequence (P00787 80-333 limits assumed): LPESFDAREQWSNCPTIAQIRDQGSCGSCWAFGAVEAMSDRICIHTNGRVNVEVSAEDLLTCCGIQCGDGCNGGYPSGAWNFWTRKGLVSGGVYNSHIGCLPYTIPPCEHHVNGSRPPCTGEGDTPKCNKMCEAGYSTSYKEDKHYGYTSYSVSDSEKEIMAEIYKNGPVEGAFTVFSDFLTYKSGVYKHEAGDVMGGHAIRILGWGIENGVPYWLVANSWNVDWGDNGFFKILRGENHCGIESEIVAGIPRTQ

## C[C@H](NC(=O)[C@H](Cc1ccccc1)NC(=O)OCc1ccccc1)C(=O)C=[N+]=[N-] [PADK, N-carbobenzyloxy-L-phenylalanyl-L-alanyl-diazomethylketone]
[1]
  intracellular Aβ1-42 in pyramidal neurons: decrease
[2]
  Cathepsin B immunoreactivity increase: 4- to 8 fold
[3]
  Aβ peptide level: reductions
[4]; A53T mice, i.p., 18 mg/kg/day
  high molecular weight cathepsin B species (CB-80, CB-85, CB-105) in heart: returned the high molecular weight species to near normal levels
[4]; heart tissue, p<0.01 vs vehicle-treated A53T mice
  ratio between active cathepsin B form of 30 kDa and the precursor of >100 kDa: enhances the ratio
[5]
  adverse effects during behavioral tests: no evidence of adverse effects
[6]; AD mouse models
  extracellular Aβ deposits: significantly reduced
[6]; AD transgenic mice
  truncated Aβ38: increase
[6]; AD transgenic mouse models
  synaptic integrity and cognitive ability: improved
[6]; two different transgenic mouse models of AD
  intracellular Aβ1-42 peptide in the hippocampus and other brain regions: reduced
[6]; two mouse models of AD
  active form of cathepsin B: markedly up-regulated
